Article PMC7772748 (Amino acids, 2020)
Where no end group is shown, it is not given here.

Assays:
[1] = system: CRF(1–16)/R1ΔN chimera of CRF1R (HEK 293 cells, transient expression); details: ref Nielsen et al. 2000; cited from earlier work
RAW 264.7 cells = test: Proliferation assay; type: cell-based; details: 1 μM, third day of culture (72 h), MTT; n = 3 experiments
3T3L1 mature adipocytes = test: CXCL1 release from differentiated 3T3L1 white adipocytes; type: cell-based, mouse; details: 10 nM CRF alone, 24 h, differentiated white 3T3L1 adipocytes, ELISA

CCCCN(CC)c1nc(C)nc2c1c(C)c(C)n2-c1c(C)cc(C)cc1C [antalarmin]
block of the constitutive activity (activation) of the CRF(1–16)/R1ΔN chimera [1]: blocked

astressin
proliferation rate of RAW 264.7 cells compared to vehicle-treated cells (RAW 264.7 cells): levels similar to those achieved with astressin | block of the constitutive activity (activation) of the CRF(1–16)/R1ΔN chimera [1]: not blocked

corticotropin-releasing factor (SEEPPISLDLTFHLLREVLEMARAEQLAQQAHSNRKLMEII; ends and bridges not checked; UniProt P06850 154-194, looked up) [CRF]
production of CXCL1 compared to untreated (control) cells (3T3L1 mature adipocytes): significantly reduced
